Consider one molecule from patent publication US12678421B2, “Composition for enhancing NAMPT gene expression” (DAICEL CORPORATION, priority 2020, dated 2026).

The test system of assay [1] is NAMPT gene. The experiment in a line: NAMPT gene expression in C2C12 cells (real-time PCR). Type of assay: cell-based, mouse. Conditions: C2C12 cells (myotubes), 10 μM, 24 hours after addition, relative to β-actin, vs DMSO control (FIG. 7). How it is done: (§1) Mouse skeletal muscle-derived myoblast cell line C2C12 cells (Muscle, Myoblast, Mus musculus, mouse, ATCC CRL-1772 (strain C3H)) were passaged using DMEM (containing 10% FBS, antibiotics (penicillin and streptomycin), and NaHCO3) medium in a CO2 incubator under conditions of 37° C., 5% CO2, and 95% air.
(§2) After the C2C12 cells reached about 90% confluence, the serum in the medium was replaced with inactivated horse serum, and the serum concentration was lowered to 2% to induce differentiation. Cells on day 5 after differentiation induction were used as C2C12 myotubes for testing.
(§3) C2C12 cells were seeded in a 12-well plate at a cell concentration of 3×10^5 cells/dish, and equol dissolved in DMSO was added at a final concentration of 10 μM after 24 hours and 48 hours. In addition, the same amount of DMSO was added to a control, and resveratrol was added to a positive control at a final concentration of 10 μM.
(§4) Cells were harvested 24 hours after the addition of equol, and total RNA was extracted. cDNA was synthesized using the total RNA and was used as a template for real-time PCR. […] In addition, the relative gene expression level was calculated using β-actin, which is a housekeeping gene, by dividing the measured value by the expression level of β-actin.

Assay [2] concerns PGC-1α gene. The experiment in a line: PGC-1α gene expression in Caco-2 cells (real-time PCR). The class given is cell-based, human. Conditions: 10 μM, 24 hours after addition, relative to β-actin, vs DMSO control (FIG. 3). As to the method:
(§5) Human colon cancer-derived cell line Caco-2 cells (colon, epithelial-like, colorectal adenocarcinoma, human, ATCC HTB-37) were passaged using DMEM (containing 10% FBS, antibiotics (penicillin and streptomycin), and NaHCO3) medium in a CO2 incubator under conditions of 37° C., 5% CO2, and 95% air, and used for testing.
(§6) Caco-2 cells were seeded in a 12-well plate at a cell concentration of 3×10^5 cells/dish, and equol dissolved in DMSO was added at a final concentration of 10 μM after 24 hours and 48 hours. In addition, the same amount of DMSO was added to a control, and resveratrol (Wako Pure Chemical Industries, Ltd.) was added to a positive control at a final concentration of 10 μM.
(§7) Cells were harvested 24 hours after the addition of equol, and total RNA was extracted. cDNA was synthesized using the total RNA and was used as a template for real-time PCR. Real-time PCR was performed using a primer of each gene and the prepared cDNA to measure the expression level of each gene. In addition, the relative gene expression level was calculated using β-actin, which is a housekeeping gene, by dividing the measured value by the expression level of β-actin. The orientation of the primer sequences is 5′ to 3′ from left to right.

The subject of assay [3] is SIRT1 gene. The experiment in a line: SIRT1 gene expression in Caco-2 cells (real-time PCR). Conditions: 10 μM, 24 hours after addition, relative to β-actin, vs DMSO control (FIG. 2). The class given is cell-based, human. As to the method: as §5, §6, §7
Background: In qPCR the cycle at which signal appears reflects the starting amount.

For assay [4], the system named is Caco-2 cells. The experiment in a line: Intracellular NAD^+/NADH quantification in Caco-2 cells. The class given is cell-based, human. The note with it: 10 μM, 24 hours after addition, vs DMSO control (FIG. 4). How it is done: (§8) Caco-2 cells were passaged in the same manner as in Example 1 and used for testing. Caco-2 cells were seeded in a 5-mL dish at a cell concentration of 3×10^5 cells/dish, and equol was added in the same manner as in Example 1. In addition, a control and a positive control were prepared in the same manner as well.
The medium was removed 24 hours after the addition of equol, the cells were washed with PBS, then intracellular NAD^+ and NADH were measured using an NAD^+/NADH quantification kit (BioVision, San Francisco, USA), and the NAD^+/NADH ratio was determined.

Another assay concerns PGC-1α. The experiment in a line: PGC-1α expression level and acetyl PGC-1α level in Caco-2 cells (Western blotting, immunoprecipitation). Type of assay: cell-based, human. The note with it: 10 μM, 24 hours after addition, vs DMSO control (FIGS. 5-1, 5-2). As to the method: as §8
The medium was removed 24 hours after the addition of equol, the cells were washed with PBS, and then cellular proteins were extracted. The extracted proteins were subjected to Western blotting using an anti-PGC-1α antibody (ab77210, abcam, Cambridge, UK) to measure the expression level of PGC-1α. Furthermore, after immunoprecipitation using an anti-acetylated-lysine antibody (#9441S, Cell Signaling Technology, Danvers, MA, USA), the acetyl PGC-1α level was measured by Western blotting.
On the technique in general: A western blot detects proteins with antibodies after separation by electrophoresis.

The subject of assay [5] is PGC-1α gene. The experiment in a line: PGC-1α gene expression in C2C12 cells (real-time PCR). The class given is cell-based, mouse. The note with it: C2C12 cells (myotubes), 10 μM, 24 hours after addition, relative to β-actin, vs DMSO control (FIG. 9). As to the method: as §1, §2, §3, §4
Assay [6] concerns SIRT1 gene. The experiment in a line: SIRT1 gene expression in C2C12 cells (real-time PCR). Type of assay: cell-based, mouse. Conditions: C2C12 cells (myotubes), 10 μM, 24 hours after addition, relative to β-actin, vs DMSO control (FIG. 8). As to the method: as §1, §2, §3, §4
The subject of assay [7] is NAMPT gene. The experiment in a line: NAMPT gene expression in Caco-2 cells (real-time PCR). Conditions: 10 μM, 24 hours after addition, relative to β-actin, vs DMSO control (FIG. 1). Type of assay: cell-based, human. As to the method:
as §5, §6, §7

The test system of another assay is C2C12 cells. The experiment in a line: Intracellular mitochondria in C2C12 myotubes (MitoTracker staining, imaging cytometer). The class given is cell-based, mouse. The note with it: 10 μM, 72 hours after addition, vs DMSO control (FIG. 10). As to the method:
(§9) Mitochondria were stained using MotoTracker Red CMXRos (Invitrogen Corporation) 24 hours after the addition of equol. The cells were subjected to NI Cell Analyzer 1000 Imaging Cytometer (GE Healthcare Bio-Sciences Corp, Piscataway, NJ, USA) to detect intracellular mitochondria, and the image data were digitized using “mito Tracker” of NI Cell Analyzer 1000 Workstation (GE Healthcare Bio-Sciences Corp, Piscataway, NJ, USA).
C2C12 cells were passaged in the same manner as in Example 7 and used for testing. C2C12 cells were seeded in a μClear Fluorescence Black Plate (Greiner Bio-one) at a cell concentration of 1×10^4 cells/well. After the cells reached about 90% confluence, the serum in the medium was replaced with inactivated horse serum, and the serum concentration was lowered to 2% to induce differentiation. Cells on day 5 after differentiation induction were used as C2C12 myotubes for testing.
Equol was added in the same manner as in Example 1. In addition, the same amount of DMSO was also used for a control.
The number of mitochondria was measured 72 hours after the addition of equol in the same manner as in Example 4.

Assay [8] deals with Caco-2 cells. The experiment in a line: Intracellular mitochondria in Caco-2 cells (MitoTracker staining, imaging cytometer). The class given is cell-based, human. Conditions: 10 μM, 24 hours after addition, vs DMSO control (FIG. 6). As to the method: Caco-2 cells were passaged in the same manner as in Example 1 and used for testing. Caco-2 cells were seeded in a μClear Fluorescence Black Plate (Greiner Bio-one) at a cell concentration of 5×10^3 cells/dish, and equol was added in the same manner as in Example 1. In addition, a control and a positive control were prepared in the same manner as well.
as §9

Regarding `Oc1ccc([C@H]2COc3cc(O)ccc3C2)cc1` [equol, 4′,7-isoflavandiol], the “expression level of NAMPT gene” value in the assay on NAMPT gene [1] and with NAMPT gene [7] was “increased the expression levels” in each case. Moreover, the “expression level of PGC-1α gene” value with PGC-1α gene [2] and in the assay on PGC-1α gene [5] was “increased the expression levels” each time. For the same molecule, the “expression level of SIRT1 gene” value in the assay with SIRT1 gene [3] and in the assay on SIRT1 gene [6] was “increased the expression levels” throughout. The “NAD^+ (NAD^+/NADH ratio)” value in the assay on Caco-2 cells [4] was “increased NAD^+”. In the assay on PGC-1α, the “deacetylation of PGC-1α (acetyl PGC-1α level)” value is reported as “promote deacetylation of PGC-1α”. Moreover, in the assay with PGC-1α, the “expression level of PGC-1α (protein, Western blotting)” value is listed as “increased the expression level of PGC-1α”. Further, the “number of intracellular mitochondria” value in the assay with C2C12 cells and in the assay with Caco-2 cells [8] was “increased the number of intracellular mitochondria” each time.
